# Tested on: w.1 AMATA Amaranthus tamariscinus, common waterhemp, sensitive biotype
# Assay: Greenhouse experiment, weed control of w.1 (Example 3)
# Assay type: in vivo
# Conditions: for Weed control (%) w.1: greenhouse, sensitive biotype
smiles,measurement,setting,value
C#CCN1C(=O)C(F)(F)Oc2cc(F)c(-n3c(=O)n(C)c(=S)n(C)c3=O)cc21 [I.a.35],activity in words on sensitive weed w.1,summary of Example 3 table,very good activity
same,Weed control (%) w.1,use rate 2 g/ha,99%
same,Weed control (%) w.1,use rate 4 g/ha,100%

# Reference: patent US10897903B2, “Method for controlling PPO resistant weeds” (BASF SE, priority 2016, dated 2021)
